Results reported in article PMC6511062, “Preclinical candidate for the treatment of visceral leishmaniasis that acts through proteasome inhibition” (Proceedings of the National Academy of Sciences of the …, 2019).
In brackets after ≈: the same amount, converted by molar mass. Entries after “also recorded” stand apart in the source; their conditions may differ. Where two headings read alike, the source gives them in different places.

Key:
[1] = test system: TA1537; assay: Ames test, strain TA1537
Procedure: (§1) oxidative metabolism system (S9-mix). The maximum concentration tested and […]
(§2) Compound 7a was tested in a bacterial mutation screening assay (Ames test) with Salmonella typhimurium TA1535, TA1537, TA98, TA100 and Escherichia coli WP2uvrA(pKM101) in the presence and absence of an exogenous mammalian […]
(§3) The bacterial mutation screening assay was a plate incorporation test carried out as previously described15 and according to current methodology. […]

[2] = test system: WP2 uvrA (pKM101); assay: Ames test, strain WP2 uvrA (pKM101); conditions: with S9-mix, dose level 10 per plate, positive control
Procedure: as §1, §2, §3

[3] = test system: TA100; conditions: positive control
Procedure: as §1, §2, §3

[4] = test system: TA1535; conditions: positive control
Procedure: as §1, §2, §3

[5] = test system: TA98; assay: Ames test, strain TA98; conditions: without S9-mix, dose level 1 per plate, positive control
Procedure: as §1, §2, §3

[6] = test system: THP-1 cells; assay: Mammalian cell growth inhibition (THP-1); format: cell-based; conditions: Homo sapiens
Description: We hypothesized that, in view of their structural similarity, 1 and 2 probably shared the same mechanism of action.

[7] = test system: L. donovani intramacrophage amastigotes; assay: L. donovani intramacrophage assay (amastigotes in differentiated THP-1 cells); format: cell-based, Leishmania donovani; conditions: for EC50: Leishmania donovani, L. donovani amastigotes in differentiated THP-1 cells, read-out: Intramacrophage EC50
Procedure: T. cruzi4, Leishmania donovani axenic amastigote, cidal axenic amastigote and intra-
macrophage drug sensitivity assays were conducted as previously described5,6. […]
5. Intrinsic clearance (CLint) […]
6. Pharmacokinetic studies. […]

[8] = CAD (charged aerosol detector) solubility
[9] = Intrinsic clearance in mouse liver microsomes; format: in vitro ADME
Procedure: page 13: 4. Parasite assays T. cruzi4, Leishmania donovani axenic amastigote, cidal axenic amastigote and intra- macrophage drug sensitivity assays were conducted as previously described5,6. a. […] Instead of a single readout at 72 h, multiple identical plates were used and read at different time points (24, 48, 72 h). Rate of kill curves showing the luminescence signal at each time point for each concentration were plotted. 5. […] The rate of intrinsic clearance (CLint) of each test compound was then calculated using the following calculation: CLint(mL/min/g liver) = k x V x Microsomal protein yield Where V (mL/mg protein) is the incubation volume/mg protein added and microsomal protein yield is taken as 52.5 mg protein/g liver. Verapamil (0.5 μM) was used as a positive control to confirm acceptable assay performance. 6. Pharmacokinetic studies. a. Mouse and dog PK Mouse pharmacokinetic studies were conducted in male CD-1 mice and male beagle dogs. 3 animals per group were used for each study performed. A dose of 3 mg/kg was administered intravenously, in a bolus form to mice and infused over a 30 min period to dogs. For all the intravenous studies compound were dissolved in 5% DMSO/20% kleptose in saline. A dose of 10 mg/kg was orally administered by gavage to the two species in a suspension of 1% methylcellulose to investigate oral pharmacokinetics. S13

[10] = test system: Salmonella typhimurium TA1535, TA1537, TA98, TA100 and Escherichia coli WP2uvrA(pKM101); assay: Bacterial mutation screening assay (Ames test), overall outcome; format: cell-based; conditions: presence and absence of S9-mix
Procedure: i. Bacterial Mutation (Ames) Assay
Compound 6 was tested in a bacterial mutation screening assay (Ames test) with Salmonella typhimurium TA1535, TA1537, TA98, TA100 and Escherichia coli WP2uvrA(pKM101) in the presence and absence of an exogenous mammalian oxidative metabolism system (S9-mix). The maximum concentration tested and […]
Compound 6a was tested in a bacterial mutation screening assay (Ames test) with […]
Compound 7a was tested in a bacterial mutation screening assay (Ames test) with […]
as §3

[11] = Solubility in fasted simulated intestinal fluid (FaSSIF); conditions: for FaSSIF solubility: fasted simulated intestinal fluid; for solubility: fasted simulated intestinal fluid (FaSSIF), fassif
[12] = test system: mouse lymphoma cells; assay: Mouse lymphoma assay; conditions: for MF (Mutation Frequency) / RTG (Relative Total Growth): positive control
Procedure: oxidative metabolism system (S9-mix). […]
The maximum […]
concentrations analysed were 410.45 µg/mL (1 mM, the maximum concentration in accordance with current guidelines and 100 µg/mL (limited by toxicity), for the 3 and […]
The mouse lymphoma screen was carried out using test methodology based on established procedures for in vitro gene mutation testing17,18,19,20. […]

[13] = test system: L. donovani promastigotes; assay: microbe, parasite or virus in culture; format: cell-based, Leishmania donovani; conditions: read-out: EC50
Procedure: 9. Mode of action studies a. Cell lines and culture conditions […]
c. Generation of drug-resistant parasites […]
donovani in the continuous presence of this compound. Starting at a sub-lethal […]
After a total of 120 days in
Genomic DNA was harvested from three independently generated L. donovani resistant clones and an age match control, as previously described27. PCR was performed using Platinum PCR Supermix (Invitrogen), as per manufacturer’s […]
generated using primers SubunitB4FW and SubunitB4RV, then sequenced using primer SubunitB4FW (Table S6). To sequence the β5 subunit (LdBPK_361730.1), an […]
sequenced using primer SubunitB5FW. PCR amplification and DNA sequencing were performed in triplicate for each independently generated cell line. The Leishmania donovani BPK282A1 sequences of the two subunits were identified in TriTrypDB and […]
e. Generation of overexpression constructs and LdBOB transgenic cell lines The genes encoding the mutated versions of the β4 (LdBPK_360340.1) and the β5 […]
parasites, were synthesised (GeneArt, Thermo Fischer Scientific). The synthetic genes, flanked by BamHI sites were cloned into the equivalent site of pIR1-SAT. The accuracy of all assembled constructs was verified by sequencing.
Mid-log-phase L. donovani promastigotes (LdBOB) were transfected with overexpression constructs using the Human T-Cell Nucleofector kit and the Amaxa Nucleofector electroporator (program V-033). Following transfection, cells were […]
to appropriate drug selection (100 µg/mL nourseothricin). Cloned cell lines were […]
selection for one passage prior to experiments. […]

[14] = test system: chymotrypsin-like activity of the L. donovani proteasome; assay: biochemical; design: species or system Leishmania donovani; conditions: lysates from RES II and WT parasites
Procedure: An in vitro assay was developed that enabled the chymotrypsin-like activity and additional proteolytic activities associated with the proteasome to be directly monitored within proteasome-enriched parasite cell lysates. Likewise, human proteasome from two sources (i.e., commercially pure 26S and enriched proteasome fractions from THP-1 lysates) was tested using the same biochemical assays.
Proteasome enrichment by ultracentrifugation
The protocol described by Kisselev et al.34 was adapted to enrich the proteasomes present in L. donovani and THP1 crude extracts. L. donovani or THP1 cells were resuspended in sucrose buffer (50 mM Tris buffer pH 7.5, 5 mM Magnesium chloride, 1 mM EDTA, 50 mM NaCl, 250 mM sucrose, 2 mM ATP, 1 mM DTT) and lysed by nitrogen cavitation for 15 min (110 bars of 1500 psi). Lysates were centrifuged at 20,000g for 30 min at 4 °C and supernatants containing soluble protein were subjected to an ultracentrifugation step at 300,000g for 2h at 4 °C. The resulting proteasome-containing pellets were resuspended in sucrose buffer and left on ice for 30 min to complete solubilization. Samples were centrifuged for 10 min at 20,000 g to remove insoluble material. Proteins contained in supernatant (proteasome enriched fraction) were measured by Bradford.
Proteasome activity assays
Compounds were dispensed into black 384-well assay plates (Greiner) by acoustic dispensing (LabCyte ECHO). For potency determinations, eleven-point, one in three dilution curves were generated, with a top concentration of 100 µM. Three proteasome activities were measured using a commercially available indirect enzyme-based luminescent assay kit (Promega) with Suc-LLVY-aminoluciferin, Z-LRR-aminoluciferin and Z-nLPnLD-aminoluciferin used as substrates for chymotrypsin-like, trypsin-like and caspase-like activities, respectively. In addition to proteasome samples: L. donovani and THP1-enriched proteasomes, commercially available human purified 26S proteasome (Boston Biochem) was also assessed.

[15] = with S9-mix, dose level 5 per plate, positive control
[16] = with S9-mix, dose level 5 per plate
[17] = without S9-mix, dose level 50 per plate
[18] = without S9-mix, dose level 2 per plate

Question: For `Nc1ccc2cc3ccccc3cc2c1` [Compound 2-AAN, 2-Aminoanthracene, reference compound], which “Mean revertants per plate” value [1, 15] is on record?
Answer: 153.0

Question: And the “Ratio treated / solvent” value [1, 15]?
Answer: 6.7

Question: And the “Mean revertants per plate” value [2]?
Answer: 1650.5

Question: What about the “Ratio treated / solvent” value [2] of the same compound?
Answer: 11.1

Question: And the “Mean revertants per plate” value [3, 16]?
Answer: 4441.0

Question: And the “Ratio treated / solvent” value [3, 16]?
Answer: 33.6

Question: What about the “Mean revertants per plate” value [4, 16] of the same compound?
Answer: 490.5

Question: And the “Ratio treated / solvent” value [4, 16]?
Answer: 31.6

Question: Which results are given for `O=[N+]([O-])c1ccc2c(c1)Cc1ccccc1-2` [Compound 2NF, 2-Nitrofluorene, reference compound]?
Answer: Mean revertants per plate [5]: 417.5; Ratio treated / solvent [5]: 20.5

Question: Which EC50 [6] does the source give for `CCOc1cnc2nc(-c3cccc(NC(=O)c4ccco4)c3)cn2c1` [Compound 3] here?
Answer: > 50 µM

Question: What about the EC50 [7] of the same compound?
Answer: 4.2 µM

Question: And the solubility [8]?
Answer: 7 µg/mL (≈ 20.1 µM)

Question: What about the CLint [9] of the same compound?
Answer: 1.8 mL/min/g

Question: What about the “CLint (intrinsic clearance when incubated with mouse liver microsomes)” value [9] of the same compound?
Answer: 1.8 mL/min per gram

Question: For `CCOc1cnc2nc(-c3cccc(NC(=O)N4CCCC4)c3)cn2c1` [Compound 4], which EC50 [6] is on record?
Answer: > 50 µM

Question: And the EC50 [7]?
Answer: 3.3 µM

Question: What about the solubility [8] of the same compound?
Answer: 7 µg/mL (≈ 19.9 µM)

Question: What about the CLint [9] of the same compound?
Answer: 0.59 mL/min/g

Question: And the “CLint (intrinsic clearance when incubated with mouse liver microsomes)” value [9]?
Answer: 0.59 mL/min per gram

Question: With `O=C(Nc1cccc(-c2cn3cc(N4CCOCC4)cnc3n2)c1)N1CCCC1` [Compound 5] as the compound, how does the EC50 [6] read?
Answer: > 50 µM

Question: What about the EC50 [7] of the same compound?
Answer: 8.2 µM

Question: What about the solubility [8] of the same compound?
Answer: 43 µg/mL (≈ 110 µM)

Question: And the CLint [9]?
Answer: 0.76 mL/min/g

Question: What about the “CLint (intrinsic clearance when incubated with mouse liver microsomes)” value [9] of the same compound?
Answer: 0.76 mL/min per gram

Question: Which results are given for `O=C(Nc1ccc(F)c(-c2cn3cc(-c4ccccc4)cnc3n2)c1)N1CCCC1` [Compound 6]?
Answer: AMES [10]: not mutagenic; also recorded: negative; FaSSIF solubility [11]: poor solubility; solubility [11]: 4 µg/mL (≈ 9.96 µM); EC50 [6]: > 50 µM; EC50 [7]: 0.15 µM; solubility [8]: 8 µg/mL (≈ 19.9 µM); CLint [9]: 2.6 mL/min/g

Question: With `O=C(Nc1ccc(F)c(-c2cn3cc(N4CCOCC4)cnc3n2)c1)N1CCCC1` [Compound 6a] as the compound, how does the AMES [10] read?
Answer: mutagenic in strain TA1537 when tested in the absence of S9-mix; also recorded: positive

Question: And the FaSSIF solubility [11]?
Answer: poor solubility

Question: What about the solubility [11] of the same compound?
Answer: 6 µg/mL (≈ 14.6 µM)

Question: And the EC50 [6]?
Answer: > 50 µM

Question: And the EC50 [7]?
Answer: 0.6 µM

Question: And the “improvement of intramacrophage potency” value ([7]; relative to 5)?
Answer: > 10 fold

Question: And the solubility [8]?
Answer: 39 µg/mL (≈ 95 µM)

Question: What about the CLint [9] of the same compound?
Answer: < 0.5 mL/min/g

Question: With `Nc1c2ccccc2nc2ccccc12` [Compound 9-AAC, 9-Amino Acridine, reference compound] as the compound, how does the “Mean revertants per plate” value [1, 17] read?
Answer: 249.5

Question: What about the “Ratio treated / solvent” value [1, 17] of the same compound?
Answer: 17.4

Question: What does the source list for `Cc1c2ccccc2c(C)c2c1ccc1ccccc12` [DMBA, 7,12-dimethylbenz[a]anthracene, reference compound]?
Answer: Positive / Negative ([12]; 3 hour +S9 treatment): Positive; MF (Mutation Frequency) ([12]; 3 hour +S9 treatment): 1783.48 ×10-6; RTG (Relative Total Growth) ([12]; 3 hour +S9 treatment): 28%

Question: Which results are given for `Cc1nc(C)c(C(=O)Nc2ccc(F)c(-c3nc4ncc(-c5ccccn5)cn4n3)c2)o1` [GNF6702, reference compound]?
Answer: EC50 ([13]; RES I (compound 7-resistant clone)): 527 ± 12 nM; EC50 ([13]; RES III (compound 7-resistant clone)): 768 ± 38 nM; EC50 ([13]; WT promastigotes): 1.8 ± 0.002 nM

Question: Which “Positive / Negative” value ([12]; 24 hour -S9 treatment) does the source give for `COS(C)(=O)=O` [MMS, methylmethansulfonate, reference compound] here?
Answer: Positive

Question: What about the “MF (Mutation Frequency)” value ([12]; 24 hour -S9 treatment) of the same compound?
Answer: 938.58 ×10-6

Question: And the “RTG (Relative Total Growth)” value ([12]; 24 hour -S9 treatment)?
Answer: 73%

Question: Which “Mean revertants per plate” value [3, 18] does the source give for `[N-]=[N+]=[N-].[Na+]` [NaN3, Sodium Azide, reference compound] here?
Answer: 1050.0

Question: And the “Ratio treated / solvent” value [3, 18]?
Answer: 10.1

Question: And the “Mean revertants per plate” value [4, 18]?
Answer: 1128.5

Question: And the “Ratio treated / solvent” value [4, 18]?
Answer: 44.5

Question: For `CC(C)C[C@H](NC(=O)[C@H](CCc1ccccc1)NC(=O)CN1CCOCC1)C(=O)N[C@@H](Cc1ccccc1)C(=O)N[C@@H](CC(C)C)C(=O)[C@@]1(C)CO1` [carfilzomib, reference compound], which “inhibition of chymotrypsin-like activity, RES II vs WT lysates” value [14] is on record?
Answer: equal potency
